Experimental data: PMC8842279, “Exploring Non-orthosteric Interactions with a Series of Potent and Selective A3 Antagonists” (ACS Medicinal Chemistry Letters, 2022)

What was measured:
[1] = target: T1, hA2A (human A2A adenosine receptor) (Homo sapiens, UniProt P29274); format: binding; conditions: human HeLa cells, n = 2
T1 construct: expressed in transfected cells; host or cells: HeLa

[2] = target: T2, hA1 (human A1 adenosine receptor) (Homo sapiens, UniProt P30542); assay: Radioligand binding, displacement of [3H]DPCPX, transfected CHO cells; conditions: n = 2, read-out: hA1 % displacement of specific binding at 1 μM
T2 construct: expressed in transfected cells; host or cells: CHO
T2 sequence (P30542 1-326): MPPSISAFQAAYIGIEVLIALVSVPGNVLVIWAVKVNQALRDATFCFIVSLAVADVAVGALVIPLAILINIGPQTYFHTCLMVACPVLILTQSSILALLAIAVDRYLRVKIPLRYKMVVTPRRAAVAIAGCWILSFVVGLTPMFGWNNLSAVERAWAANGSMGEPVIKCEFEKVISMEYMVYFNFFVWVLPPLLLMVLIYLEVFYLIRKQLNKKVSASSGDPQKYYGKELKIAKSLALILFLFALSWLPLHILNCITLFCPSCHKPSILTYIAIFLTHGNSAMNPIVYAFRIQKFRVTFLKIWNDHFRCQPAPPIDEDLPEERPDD
Procedure: (§1) Briefly, hARs were expressed in transfected CHO (A1AR), HeLa (A2AAR and A3AR), and HEK-293 (A2BAR) cells. (^3H)-8-Cyclopentyl-1,3-dipropylxanthine ([^3H]DPCPX) for A1AR and [^3H]NECA for A3AR were used as radioligands in the assays. […] Ki values were calculated by fitting the data with nonlinear regression using Prism 2.1 software (GraphPad). […].
(§2) Pharmacology. Binding assays
(§3) The adenosinergic profile (affinity and selectivity) of the 18 novel pyrimidine derivatives (7-10) was evaluated in vitro (four human AR subtypes) using radioligand binding assays. Human adenosine receptors were expressed in transfected CHO (A1AR), HeLa (A2AAR and A3AR) and HEK-293 (A2BAR) cells. (3H)-1,3-Dipropyl-8-cyclopentylxanthine ([3H]DPCPX) for A1AR and [3H]NECA for A3AR were employed as radioligands in the assays. […]
displace specific radioligand binding. Ki values were obtained by fitting the data with nonlinear regression using Prism 2.1 software (GraphPad, San Diego, CA).
Furthermore, for A3AR, fluorescence polarization binding experiments were carried out in a 96-well plate (Corning 3650). D-PBS (Sigma D8537) was used as assay buffer. In each well, 100µg of membranes from Hela-A3 cell line previously prepared in our laboratory (Lot: A006/ 17-01-2020, […]
as standard and non-specific binding determined in presence of R-PIA 10µM (Sigma S739). 75 nM of the fluorescent ligand (CELT-228) was added, and the reaction mixture (Vt = 200µl) was incubated for 30 minutes at RT. The polarized fluorescence signal was read in an Infinite M1000 pro multiplate reader (Tecan 30063849). For validation of fluorescence polarization binding assay […] (hA 3AR Ki […]
representation of the concentration-response curves of the […].
(§4) (1 picture or pasted object on this page, not shown here)

[3] = target: T3, hA2B (human A2B adenosine receptor) (Homo sapiens, UniProt P29275); assay: Radioligand binding, displacement of [3H]DPCPX, transfected HEK-293 cells; conditions: human HEK-293 cells, n = 2, read-out: hA2B % displacement of specific binding at 1 μM
T3 construct: expressed in transfected cells; host or cells: HEK-293
T3 sequence (P29275 1-332): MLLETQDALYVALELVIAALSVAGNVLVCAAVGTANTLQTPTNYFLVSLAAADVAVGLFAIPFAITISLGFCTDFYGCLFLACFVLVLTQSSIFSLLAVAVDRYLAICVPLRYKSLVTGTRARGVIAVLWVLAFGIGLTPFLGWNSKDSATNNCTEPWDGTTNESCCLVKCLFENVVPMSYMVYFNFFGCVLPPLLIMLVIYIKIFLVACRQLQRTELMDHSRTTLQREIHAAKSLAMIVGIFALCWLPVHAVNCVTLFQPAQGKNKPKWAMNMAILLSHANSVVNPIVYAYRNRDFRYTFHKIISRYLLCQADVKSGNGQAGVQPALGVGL
Procedure: as §1, §2, §3
displace specific radioligand binding. Ki values were obtained by fitting the data with nonlinear regression using Prism 2.1 software (GraphPad, San Diego, CA). […]
as §4

T1 sequence (P29274 whole entry): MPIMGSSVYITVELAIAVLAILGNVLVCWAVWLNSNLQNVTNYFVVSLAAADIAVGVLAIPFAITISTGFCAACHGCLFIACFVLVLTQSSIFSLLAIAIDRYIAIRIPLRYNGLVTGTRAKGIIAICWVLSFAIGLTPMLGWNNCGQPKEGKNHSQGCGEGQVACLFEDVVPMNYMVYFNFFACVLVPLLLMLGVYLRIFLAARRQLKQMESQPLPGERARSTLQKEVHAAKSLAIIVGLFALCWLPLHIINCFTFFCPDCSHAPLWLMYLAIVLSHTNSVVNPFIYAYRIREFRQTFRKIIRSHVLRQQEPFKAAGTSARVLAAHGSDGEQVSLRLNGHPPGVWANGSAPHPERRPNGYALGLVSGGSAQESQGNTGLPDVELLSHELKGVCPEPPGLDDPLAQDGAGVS

Compound | hA2A % displacement of specific binding at 1 μM [1] | melting point | inhibition at 1 µM [2] | inhibition at 1 µM [3]
COc1ccc(-c2cc(NC(=O)CCC(=O)NCC(=O)NC(C)(C)C)nc(-c3ccc(OC)cc3)n2)cc1 [7a] | 3% | 176 to 178 °C | 10% | 4%
COc1ccc(-c2cc(NC(=O)CCC(=O)NCC(=O)NC3CCCCC3)nc(-c3ccc(OC)cc3)n2)cc1 [7b] | 9% | 202 to 204 °C | 5% | 16%
COc1ccc(-c2cc(NC(=O)CCC(=O)NCC(=O)NCc3ccccc3)nc(-c3ccc(OC)cc3)n2)cc1 [7c] | 3% | 184 to 186 °C | 2% | 3%
COc1ccc(-c2cc(NC(=O)CCC(=O)N(C)CC(=O)NC(C)(C)C)nc(-c3ccc(OC)cc3)n2)cc1 [7d] | 3% | 136 to 138 °C | 32% | 10%
COc1ccc(-c2cc(NC(=O)CCC(=O)N(C)CC(=O)NC3CCCCC3)nc(-c3ccc(OC)cc3)n2)cc1 [7e] | 11% | – | 9% | 1%
COc1ccc(-c2cc(NC(=O)CCC(=O)N(C)CC(=O)NCc3ccccc3)nc(-c3ccc(OC)cc3)n2)cc1 [7f] | 20% | – | 32% | 2%
COc1ccc(-c2cc(NC(=O)COCC(=O)NCC(=O)NC(C)(C)C)nc(-c3ccc(OC)cc3)n2)cc1 [8a] | 9% | – | 7% | 3%
COc1ccc(-c2cc(NC(=O)COCC(=O)NCC(=O)NC3CCCCC3)nc(-c3ccc(OC)cc3)n2)cc1 [8b] | 9% | 113 to 115 °C | 6% | 3%
COc1ccc(-c2cc(NC(=O)COCC(=O)NCC(=O)NCc3ccccc3)nc(-c3ccc(OC)cc3)n2)cc1 [8c] | 1% | 201 to 203 °C | 9% | 2%
COc1ccc(-c2cc(NC(=O)COCC(=O)N(C)CC(=O)NC(C)(C)C)nc(-c3ccc(OC)cc3)n2)cc1 [8d] | 4% | 115 to 117 °C | 20% | 2%
COc1ccc(-c2cc(NC(=O)COCC(=O)N(C)CC(=O)NC3CCCCC3)nc(-c3ccc(OC)cc3)n2)cc1 [8e] | 8% | 186 to 188 °C | 13% | 2%
COc1ccc(-c2cc(NC(=O)COCC(=O)N(C)CC(=O)NCc3ccccc3)nc(-c3ccc(OC)cc3)n2)cc1 [8f] | 1% | 166 to 168 °C | 6% | 2%
COc1ccc(-c2cc(NC(=O)CCC(=O)N3CCN(CC(=O)NC(C)(C)C)CC3)nc(-c3ccc(OC)cc3)n2)cc1 [9a] | 4% | 203 to 205 °C | 19% | 1%
COc1ccc(-c2cc(NC(=O)CCC(=O)N3CCN(CC(=O)NC4CCCCC4)CC3)nc(-c3ccc(OC)cc3)n2)cc1 [9b] | 1% | – | 9% | 1%
COc1ccc(-c2cc(NC(=O)CCC(=O)N3CCN(CC(=O)NCc4ccccc4)CC3)nc(-c3ccc(OC)cc3)n2)cc1 [9c] | 9% | 194 to 195 °C | 6% | 2%
COc1ccc(-c2cc(NC(=O)COCC(=O)N3CCN(CC(=O)NC(C)(C)C)CC3)nc(-c3ccc(OC)cc3)n2)cc1 [10a] | 36% | 106 to 108 °C | 9% | 3%
COc1ccc(-c2cc(NC(=O)COCC(=O)N3CCN(CC(=O)NC4CCCCC4)CC3)nc(-c3ccc(OC)cc3)n2)cc1 [10b] | 3% | – | 11% | 2%
COc1ccc(-c2cc(NC(=O)COCC(=O)N3CCN(CC(=O)NCc4ccccc4)CC3)nc(-c3ccc(OC)cc3)n2)cc1 [10c] | 7% | – | 2% | 1%
COc1ccc(-c2cc(NC(C)=O)nc(-c3ccc(OC)cc3)n2)cc1 [ISVY-130, N-(2,6-bis(4-methoxyphenyl)pyrimidin-4-yl)acetamide, reference compound] | 10% | – | 1% | 4%
